{"source": "ChEMBL document CHEMBL3244029", "about": "“Synthesis and stereospecific antipsychotic activity of (-)-1-cyclopropylmethyl-4-(3-trifluoromethylthio-5H-dibenzo[a,d]cyclohepten-5-ylidene)piperidine” (J Med Chem, 1977)", "key": {"[1]": {"test_system": "Saimiri", "assay": "Antipsychotic activity in squirrel monkey assessed as inhibition of conditioned avoidance response measured as maximum number of shocks possible per 30 mins interval at 1 mg/kg, po after 60 to 90 mins dosing", "format": "functional"}, "[2]": {"test_system": "Saimiri", "assay": "Antipsychotic activity in squirrel monkey assessed as inhibition of conditioned avoidance response at 9 mg/kg, po", "format": "functional, organism-based", "parameters": "dose 9 mg/kg"}, "[3]": {"test_system": "Saimiri", "assay": "Antipsychotic activity in squirrel monkey assessed as inhibition of conditioned avoidance response measured as maximum number of shocks possible per 30 mins interval at 3 mg/kg, po after 150 to 180 mins dosing", "format": "functional"}, "[4]": {"test_system": "Saimiri", "assay": "Antipsychotic activity in squirrel monkey assessed as inhibition of conditioned avoidance response measured as maximum number of shocks possible per 30 mins interval at 1 mg/kg, po after 30 to 60 mins dosing", "format": "functional"}, "[5]": {"test_system": "Saimiri", "assay": "Antipsychotic activity in squirrel monkey assessed as inhibition of conditioned avoidance response measured as maximum number of shocks possible per 30 mins interval at 3 mg/kg, po after 90 to 120 mins dosing", "format": "functional"}, "[6]": {"test_system": "Saimiri", "assay": "Antipsychotic activity in squirrel monkey assessed as inhibition of conditioned avoidance response measured as maximum number of shocks possible per 30 mins interval at 3 mg/kg, po after 120 to 150 mins dosing", "format": "functional"}, "[7]": {"test_system": "Saimiri", "assay": "Antipsychotic activity in squirrel monkey assessed as inhibition of conditioned avoidance response measured as maximum number of shocks possible per 30 mins interval at 1 mg/kg, po after 0 to 30 mins dosing", "format": "functional"}, "[8]": {"test_system": "Saimiri", "assay": "Antipsychotic activity in po dosed squirrel monkey assessed as inhibition of conditioned avoidance response measured as maximum number of shocks", "format": "functional", "conditions": "Saimiri, in Primates, po; read-out: ED50"}, "[9]": {"test_system": "Mus musculus", "assay": "Central anticholinergic activity against physostigmine-induced lethality in Carworth CF1 mouse assessed as animal death at 10 mg/kg, po treated 5 hrs before 1.6 mg/kg, sc physostigmine treatment and 2 mg/kg, ip atropine methyl nitrate treated 0.5 hrs before induction (reference value: 0%)", "format": "functional"}, "[10]": {"test_system": "Mus musculus", "assay": "Peripheral anticholinergic activity in po dosed Carworth CF1 mouse assessed as dose required to produce pupil dilation to 1.5 micrometer units in 50% mouse after 2 hrs", "format": "ADME, organism-based", "conditions": "in vivo"}}, "note": "The source made the active and inactive calls. The calls are words filed in the database; no cut-off is given here."}
{"smiles": "CN1CCC(=C2c3ccccc3C=Cc3ccc(SC(F)(F)F)cc32)CC1", "values": [{"measurement": "%max", "setting": "[1]", "value": 8, "unit": "%"}, {"measurement": "inhibition", "setting": "[2]", "value": "inactive"}, {"measurement": "%max", "setting": "[3]", "value": 100, "unit": "%"}, {"measurement": "%max", "setting": "[4]", "value": 0.66, "unit": "%"}, {"measurement": "%max", "setting": "[5]", "value": 77.4, "unit": "%"}, {"measurement": "%max", "setting": "[6]", "value": 100, "unit": "%"}, {"measurement": "%max", "setting": "[7]", "value": 0, "unit": "%"}]}
{"smiles": "CSc1ccc2c(c1)N(CCC1CCCCN1C)c1ccccc1S2.Cl", "note": "(stereo not given) [THIORIDAZINE HYDROCHLORIDE]", "values": [{"measurement": "ED50", "setting": "[8]", "value": 0.97, "unit": "mg/kg"}]}
{"smiles": "CN1CCC(=C2c3ccccc3C=Cc3ccccc32)CC1", "note": "[CYPROHEPTADINE]", "values": [{"measurement": "Activity", "setting": "[9]", "value": 0, "unit": "%"}, {"measurement": "ED", "setting": "[10]", "value": 6, "unit": "mg/kg"}]}
